# From ChEMBL document CHEMBL4229518, “New β-lactam - Tetramic acid hybrids show promising antibacterial activities” (Bioorg Med Chem Lett, 2018)
# How the values were obtained:
# Format in all cases: functional
# Acinetobacter baumannii = test: Antimicrobial activity against Acinetobacter baumannii ATCC 19606 after 18 to 20 hrs by microbroth dilution method; settings: ATCC 19606 = CIP 70.34 = JCM 6841
# Pseudomonas aeruginosa = test: Antimicrobial activity against Pseudomonas aeruginosa PAO1 after 18 to 20 hrs by microbroth dilution method
# Enterobacter cloacae = test: Antimicrobial activity against Enterobacter cloacae ATCC 13047 after 18 to 20 hrs by microbroth dilution method; settings: subsp. cloacae ATCC 13047
# Escherichia coli [1] = test: Antimicrobial activity against Escherichia coli BW25113 after 18 to 20 hrs by microbroth dilution method
# Staphylococcus aureus [2] = test: Antimicrobial activity against methicillin-susceptible Staphylococcus aureus NRS70 after 18 to 20 hrs by microbroth dilution method
# Streptococcus pneumoniae = test: Antimicrobial activity against Streptococcus pneumoniae R6 after 18 to 20 hrs by microbroth dilution method
# Staphylococcus aureus [3] = test: Antimicrobial activity against methicillin-susceptible Staphylococcus aureus ATCC 29213 after 18 to 20 hrs by microbroth dilution method
# Bacillus anthracis = test: Antimicrobial activity against Bacillus anthracis Sterne 34F2 after 18 to 20 hrs by microbroth dilution method
# Enterococcus faecalis = test: Antimicrobial activity against Enterococcus faecalis ATCC 33186 after 18 to 20 hrs by microbroth dilution method
# Escherichia coli [4] = test: Antimicrobial activity against tolC deficient Escherichia coli JW5503-1 after 18 to 20 hrs by microbroth dilution method
# Bacillus subtilis = test: Antimicrobial activity against Bacillus subtilis ATCC 23857 after 18 to 20 hrs by microbroth dilution method
# Bacillus cereus = test: Antimicrobial activity against Bacillus cereus ATCC 14579 after 18 to 20 hrs by microbroth dilution method
# Streptococcus pyogenes = test: Antimicrobial activity against Streptococcus pyogenes ATCC 700294 after 18 to 20 hrs by microbroth dilution method; settings: M1 GAS
# Proteus mirabilis = test: Antimicrobial activity against Proteus mirabilis ATCC 25933 after 18 to 20 hrs by microbroth dilution method
# Klebsiella pneumoniae [5] = test: Antimicrobial activity against Klebsiella pneumoniae ATCC 33495 after 18 to 20 hrs by microbroth dilution method
# [6] = test system: Stenotrophomonas maltophilia; test: Antimicrobial activity against Stenotrophomonas maltophilia ATCC 700475 after 18 to 20 hrs by microbroth dilution method
# Escherichia coli [7] = test: Antimicrobial activity against Escherichia coli ATCC 25922 after 18 to 20 hrs by microbroth dilution method
# Klebsiella pneumoniae [8] = test: Antimicrobial activity against Klebsiella pneumoniae isolate SJ 3 after 18 to 20 hrs by microbroth dilution method
# Klebsiella pneumoniae [9] = test: Antimicrobial activity against Klebsiella pneumoniae isolate SJ 1 after 18 to 20 hrs by microbroth dilution method
# Escherichia coli [10] = test: Antimicrobial activity against Escherichia coli isolate SJ 5 after 18 to 20 hrs by microbroth dilution method
# Escherichia coli [11] = test: Antimicrobial activity against Escherichia coli isolate SJ 6 after 18 to 20 hrs by microbroth dilution method
# Escherichia coli [12] = test: Antimicrobial activity against Escherichia coli ATCC 35218 expressing TEM-1 beta lactamases after 18 to 20 hrs by microbroth dilution method
# Klebsiella pneumoniae [13] = test: Antimicrobial activity against Klebsiella pneumoniae isolate SJ 5 after 18 to 20 hrs by microbroth dilution method
# Klebsiella pneumoniae [14] = test: Antimicrobial activity against Klebsiella pneumoniae isolate SJ 2 after 18 to 20 hrs by microbroth dilution method
# Escherichia coli [15] = test: Antimicrobial activity against Escherichia coli isolate SJ 1 after 18 to 20 hrs by microbroth dilution method
# Escherichia coli [16] = test: Antimicrobial activity against Escherichia coli isolate SJ 4 after 18 to 20 hrs by microbroth dilution method
# Escherichia coli [17] = test: Antimicrobial activity against Escherichia coli isolate SJ 3 after 18 to 20 hrs by microbroth dilution method
# Escherichia coli [18] = test: Antimicrobial activity against Escherichia coli isolate SJ 2 after 18 to 20 hrs by microbroth dilution method
# Klebsiella pneumoniae [19] = test: Antimicrobial activity against Klebsiella pneumoniae isolate SJ 4 after 18 to 20 hrs by microbroth dilution method
Compound,MIC (Acinetobacter baumannii) [µg/mL],MIC (Pseudomonas aeruginosa) [µg/mL],MIC (Enterobacter cloacae) [µg/mL],MIC (Escherichia coli [1]) [µg/mL],MIC (Staphylococcus aureus [2]) [µg/mL],MIC (Streptococcus pneumoniae) [µg/mL],MIC (Staphylococcus aureus [3]) [µg/mL],MIC (Bacillus anthracis) [µg/mL],MIC (Enterococcus faecalis) [µg/mL],MIC (Escherichia coli [4]) [µg/mL],MIC (Bacillus subtilis) [µg/mL],MIC (Bacillus cereus) [µg/mL],MIC (Streptococcus pyogenes) [µg/mL],MIC (Proteus mirabilis) [µg/mL],MIC (Klebsiella pneumoniae [5]) [µg/mL],MIC [6] [µg/mL],also measured
CC1=C(C(=O)O)N2C(=O)[C@@H](NC(=O)[C@H](N)c3ccccc3)[C@H]2SC1 [CEPHALEXIN ANHYDROUS],> 200,> 200,> 200,50,> 200,6.25,3.13,3.13,200,100,0.78,> 200,3.13,50,50,> 200,
CC(C)CC1NC(=O)C(C(=O)NCCCC(=O)N[C@@H](C(=O)N[C@@H]2C(=O)N3[C@@H]2SC(C)(C)[C@@H]3C(=O)O)c2ccccc2)=C1O (stereo partly drawn),100,50,> 200,25,50,< 0.2,0.78,3.13,25,12.5,3.13,25,0.39,1.56,> 200,25,
CO[C@@]1(NC(=O)CSCC#N)C(=O)N2C(C(=O)O)=C(CSc3nnnn3C)CS[C@@H]21 [CEFMETAZOLE],25,> 200,,0.39,,,,,,1.56,,,,0.39,3.13,,MIC (Escherichia coli [7]): 0.78 µg/mL; MIC (Klebsiella pneumoniae [8]): 0.39 µg/mL; MIC (Klebsiella pneumoniae [9]): 0.39 µg/mL; MIC (Escherichia coli [10]): 6.25 µg/mL; MIC (Escherichia coli [11]): 12.5 µg/mL; MIC (Escherichia coli [12]): 0.39 µg/mL; MIC (Klebsiella pneumoniae [13]): 1.56 µg/mL; MIC (Klebsiella pneumoniae [14]): 0.39 µg/mL; MIC (Escherichia coli [15]): 0.39 µg/mL; MIC (Escherichia coli [16]): 0.78 µg/mL; MIC (Escherichia coli [17]): 0.78 µg/mL; MIC (Escherichia coli [18]): 0.78 µg/mL; MIC (Klebsiella pneumoniae [19]): 0.78 µg/mL
CC1=C(C(=O)O)N2C(=O)[C@@H](NC(=O)[C@H](NC(=O)CCNC(=O)C3=C(O)C(CC(C)C)NC3=O)c3ccccc3)[C@H]2SC1 (stereo partly drawn),> 200,> 200,> 200,200,50,12.5,3.13,100,> 200,200,6.25,> 200,12.5,50,200,> 200,
CC(C)CC1NC(=O)C(C(=O)NCCCCCC(=O)N[C@@H](C(=O)N[C@@H]2C(=O)N3[C@@H]2SC(C)(C)[C@@H]3C(=O)O)c2ccccc2)=C1O (stereo partly drawn),100,50,> 200,50,50,< 0.2,0.78,3.13,25,12.5,3.13,50,< 0.2,6.25,> 200,25,
CC(C)CC1NC(=O)C(C(=O)NCCC(=O)N[C@@H](C(=O)N[C@@H]2C(=O)N3C(C(=O)O)=C(Cl)CS[C@H]23)c2ccccc2)=C1O (stereo partly drawn),50,> 200,> 200,12.5,25,0.39,0.78,12.5,100,12.5,0.78,> 200,1.56,1.56,50,> 200,
CC(C)CC1NC(=O)C(C(=O)NCCC(=O)N[C@@H](C(=O)N[C@@H]2C(=O)N3[C@@H]2SC(C)(C)[C@@H]3C(=O)O)c2ccccc2)=C1O (stereo partly drawn),200,25,> 200,50,50,< 0.2,0.78,3.13,50,25,3.13,25,0.78,6.25,200,50,
CC1=C(C(=O)O)N2C(=O)[C@@H](NC(=O)[C@H](NC(=O)C3=C(O)C(CC(C)C)NC3=O)c3ccccc3)[C@H]2SC1 (stereo partly drawn),100,> 200,> 200,> 200,100,100,12.5,200,200,100,25,> 200,3.13,100,> 200,100,
CC1=C(C(=O)O)N2C(=O)[C@@H](NC(=O)CCNC(=O)C3=C(O)C(CC(C)C)NC3=O)[C@H]2SC1 (stereo partly drawn),> 200,> 200,> 200,> 200,100,200,50,200,> 200,> 200,100,> 200,> 200,> 200,> 200,> 200,
CC(C)CC1NC(=O)C(C(=O)N[C@@H](C(=O)N[C@@H]2C(=O)N3[C@@H]2SC(C)(C)[C@@H]3C(=O)O)c2ccccc2)=C1O (stereo partly drawn),50,12.5,> 200,50,25,0.39,0.78,3.13,25,6.25,3.13,12.5,0.39,12.5,200,6.25,
